{"source": "patent US20260078089A1", "about": "“BIOACTIVE PHYTOCHEMICALS IN ZIZYPHUS AND GUARANA” (Phytoquest Limited, priority 2018, published 2026)", "key": {"[1]": {"test_system": "sialidase (NanH from T. forsythia)", "experiment": "Sialidase assay with MUNANA substrate", "type": "biochemical, Tannerella forsythia", "settings": "1 mM inhibitor, 2.5 nM sialidase, 0.1 mM MUNANA, pH 7.2", "procedure": "(§1) Sialidase assays used 1 mM inhibitor (or water without inhibitor) and 2.5 nM sialidase (including NanH from T. forsythia) incubated in the presence of 0.1 mM methylumbeliferyl-N-acetylneuraminic acid, pH 7.2 in 20 mM sodium phosphate buffer. Reactions were stopped at 30 seconds and 60 seconds via addition of ph 10.5 60 mM sodium carbonate buffer. Release of fluorogenic MU was quantified by measuring fluorescence emission at 450 nm, excitation 350 nm. Percentage sialidase activity was expressed as the change in fluorescence between 30 seconds and 60 seconds compared to that of a reaction without inhibitor. Reactions were carried out in triplicate.\nMU release can be used to quantify sialidase activity.\nas §1, with “1” for “Sialidase assays used 1”, “forsythia) was” for “forsythia)”, “MUNANA,” for “methylumbeliferyl-N-acetylneuraminic acid,”, “7.2” for “7.2 in”, “Sodium Phosphate” for “sodium phosphate”"}, "male ddy mouse": {"test_system": "male ddy mouse", "experiment": "Sucrose loading test, blood glucose in mice", "type": "in vivo", "settings": "oral sucrose 2.5 g/kg, test sample 500 mg/kg body weight, mean n = 5", "procedure": "The animal experimental protocols in this study were approved by the Animal Experiments Committee of the University of Toyama (S-2010 UH-2). Male ddy mice (29-33 g) after an overnight fast were used for acute disaccharide loading tests. Maltose (2.5 g/kg body weight) or Sucrose (2.5 g/kg body weight) as well as the test samples were dissolved in 0.9% NaCl solution and administered to mice via a stomach tube. A control group was loaded with saline only.\nBlood samples for glucose measurements were obtained from the tail vein at 0, 15, 30, 60, and 120 min after disaccharide-loading. The blood glucose levels were measured by a portable kit, Antsence II™ (Sankyo Co. Ltd. Tokyo, Japan). The Zizyphus extract HS0810/142/41 as well as the purified compounds were tested in this way."}, "glucosidases": {"test_system": "glucosidases", "experiment": "Glycosidase panel, glucosidases overall", "type": "biochemical", "settings": "panel of glucosidases", "procedure": "Glycosidase assays were conducted on Compounds 1 and 3 and an extract of Zizyphus used in the disaccharide loading mouse studies to determine if glucosidase inhibition might explain the effects on blood glucose. A panel of glycosidases were used to be sure any activity found was a selective inhibition and not just non-specific binding to the enzyme.\nGlycosidase assays were conducted as described by Watson et al. (Phytochemistry 1997, 46, 255) using p-nitrophenyl-substrates (except sialidase which used methylumbeliferyl-N-acetyineuraminic acid as substrate). Assays were carried out in microtitre plates. Enzymes were assayed in 0.1 M citric acid/0.2 M di-sodium hydrogen phosphate (McIlvaine) buffers at the optimum pH for the enzyme. All assays were carried out at 20° C. All enzymes and substrates were purchased from Sigma Aldrich Chemicals Limited. The incubation mixture consisted of 10 μl of enzyme solution, 10 μl of the iminosugars solution and 50 μl of the appropriate 5 mM p-nitrophenyl substrate made up in McIlvaine buffer at the optimum pH for the enzyme. The reactions were stopped with 0.4 M glycine (pH 10.4) during the exponential phase of the reaction. Absorbances were read at 405 nm. Water was substituted for the alkaloids in the blanks. Reactions were carried out in triplicate. […]"}}}
{"smiles": "OC[C@H]1N[C@H](CO)[C@@H](O)[C@@H]1O", "note": "[DMDP]", "values": [{"measurement": "% inhibition", "setting": "[1]", "result": "−2", "unit": "%"}, {"measurement": "blood glucose", "setting": "male ddy mouse; 0 min after administration", "result": 98, "unit": "mg/dL"}, {"measurement": "blood glucose", "setting": "male ddy mouse; 15 min after administration", "result": 115, "unit": "mg/dL"}, {"measurement": "blood glucose", "setting": "male ddy mouse; 30 min after administration", "result": 100, "unit": "mg/dL"}, {"measurement": "blood glucose", "setting": "male ddy mouse; 60 min after administration", "result": 88, "unit": "mg/dL"}, {"measurement": "blood glucose", "setting": "male ddy mouse; 120 min after administration", "result": 53, "unit": "mg/dL"}, {"measurement": "glucosidase inhibition (in words)", "setting": "glucosidases", "result": "expected strong inhibition of various glucosidases"}]}
